# Results as given in patent publication US7465576B2, “Method for treating periodontal disease with a bacteriocidal disinfectant” (priority 2004, dated 2008).
# Several values for one entry are separate records, joined by “and”; a condition that tells them apart may be missing. Equal entries are not always repeated. Where two headings read alike, the source gives them in different places.
# Legend:
# [1] = test system: putrefying bacteria in fried meat and vegetables; assay: Viable cell numbers in prepared food after spraying (Test Example 3); format: cell-based
# Description: (§1) With regards to the putrefaction process of prepared food, we investigated whether or not the present bactericidal disinfectant could stop the progress of putrefaction when sprayed of food, and the degree of that bactericidal effect. Normally disinfectants are not applied to prepared food, but very often scraps of food become lodged in a periodontal pocket, providing a nutritional source for bacteria, and since the present bactericidal disinfectant is composed of compounds which are recognized as food additives, it is important to assess these effects. Just-prepared cooked rice, tofu (soybean curd), spinach with sesame dressing, and fried meat and vegetables were each crushed, homogenized, and left at 28° C. for use as the samples. After samples had been left for 5 hours, part of each was taken and used to measure bacterial viable cell number, while the respective disinfectants were sprayed uniformly on the remaining samples. Viable cell numbers were measured 1, 2 and 24 hours after spraying. Water alone was sprayed as a control. After samples had been left for 24 hours part of each was taken for measuring viable cell number, and the respective disinfectants were sprayed uniformly on the remaining samples. As when the samples were left for 5 hours, viable cell numbers were measured 1 hour, 2 hours and 24 hours after spraying. Water alone was sprayed as a control. Viable cell numbers were measured by the poured plate method using 5 g of each sample diluted by ordinary methods.
# (§2) The degree of putrefaction of course differs depending on the preparation method, ingredients and environment, but in the case of the cooked rice in this experiment, the viable cell number immediately after preparation was […] cells/g of sample, rising to 1×10^3 cells/g of sample after 5 hours, 5×10^5 cells/g of sample after 24 hours and 7×10^6 cells/g of sample after 48 hours. In the case of the tofu (soybean curd), the initial viable cell number was 2×10^4 cells/g of sample, rising to 8×10^5 cells/g of sample after 5 hours, 9×10^7 cells/g of sample after 24 hours, and 1×10^9 cells/g of sample after 48 hours, with considerable putrefaction. In the case of the spinach with sesame dressing, the viable cell number was 2×10^3 cells/g of sample immediately after preparation, rising to 5×10^4 cells/g of sample after 5 hours, 3×10^7 cells/g of sample after 24 hours and 2×10^8 cells/g of sample after 48 hours. In the case of the fried meat and vegetables, it was […] cells/g of sample immediately after preparation, rising to 2×10^3 cells/g of sample after 5 hours and 2×10^8 cells/g of sample after 24 hours, at which point there was a slight smell of putrefaction, while after 48 hours putrefaction has progressed still further and the viable cell number had risen to 3×10^9 cells/g of sample.
# [2] = test system: putrefying bacteria in tofu (soybean curd); assay: as above; format: cell-based
# Description: as §1, §2
# [3] = test system: putrefying bacteria in cooked rice; assay: as above; format: cell-based
# Description: as §1, §2
# [4] = test system: putrefying bacteria in spinach with sesame dressing; assay: as above; format: cell-based
# Description: as §1, §2
# [5] = test system: spores of sporulating bacteria; format: cell-based
# [6] = test system: Red worms
# Description: Red worms with a mean length of 40 mm were prepared in groups of 10, the annuli of the red worms were severed with a cutter, and ordinary concentrations of the various bactericidal disinfectants contained in absorbent cotton were applied to the severed ends twice a day, morning and night. Application to the ends was continued even after the severed ends healed, and recovery and growth were observed. Water was applied as a control.
# [7] = test system: acid-fast bacteria; format: cell-based
# [8] = test system: detached skin wounds of mice; assay: Recovery from skin damage (Test Example 5); format: in vivo; details: applied to wound twice a day
# [9] = test system: plaque adhering to supragingival calculus; assay: Viable cell numbers in plaque soaked in disinfectant (Test Example 4); format: cell-based; details: 60 minutes of immersion
# [10] = test system: MRSA or E. coli O-157; format: cell-based; details: organic substance exceeding 50 ppm
# [11] = test system: thumbnails of volunteers; assay: Elongation of thumbnails (Test Example 7); format: in vivo, human; details: for Elongation of nails: Left (treated) thumbnail
# Description: As a general rule the bacterial disinfectants were applied immediately after hand washing. Nail growth and shape are closely tied to individual physical condition, and are a benchmark of health.
# [12] = test system: putrefying bacteria in prepared food; assay: Viable cell numbers in prepared food after spraying (Test Example 3), summary; format: cell-based
# Description: With regards to the putrefaction process of prepared food, we investigated whether or not the present bactericidal disinfectant could stop the progress of putrefaction when sprayed of food, and the degree of that bactericidal effect. Normally disinfectants are not applied to prepared food, but very often scraps of food become lodged in a periodontal pocket, providing a nutritional source for bacteria, and since the present bactericidal disinfectant is composed of compounds which are recognized as food additives, it is important to assess these effects. Just-prepared cooked rice, tofu (soybean curd), spinach with sesame dressing, and fried meat and vegetables were each crushed, homogenized, and left at 28° C. for use as the samples. […] Water alone was sprayed as a control. […] Water alone was sprayed as a control. […] Consequently, although complete eradication was not achieved, it can be said that bactericide was largely achieved. That is, there is the ability to halt development of putrefying bacteria in food and a bactericidal effect.
# [13] = test system: plaque adhering to subgingival calculus; assay: Viable cell numbers in plaque soaked in disinfectant (Test Example 4); format: cell-based; details: 60 minutes of immersion
# [14] = sprayed after 5 hours, 24 hrs after spraying
# [15] = sprayed after 5 hours, just after spraying
# [16] = sprayed after 24 hours, 1 hr after spraying
# [17] = sprayed after 24 hours, 2 hrs after spraying
# [18] = sprayed after 24 hours, 24 hrs after spraying
# [19] = sprayed after 24 hours, just after spraying
# [20] = 5 days after severing, 20 mm when severed
# [21] = sprayed after 5 hours, 1 hr after spraying
# [22] = sprayed after 5 hours, 2 hrs after spraying
structure (smiles),measurement,setting,value
N=C(NCCCCCCNC(=N)NC(=N)Nc1ccc(Cl)cc1)NC(=N)Nc1ccc(Cl)cc1 [Hibitane],viable cell number,[1]; [14],5 × 10^3 cells/g of sample
same,viable cell number,[1]; [15],2 × 10^2 cells/g of sample
same,viable cell number,[1]; [16],5 × 10^2 cells/g of sample
same,viable cell number,[1]; [17],2 × 10^2 cells/g of sample
same,viable cell number,[1]; [18],5 × 10^4 cells/g of sample
same,viable cell number,[1]; [19],7 × 10^4 cells/g of sample
same,viable cell number,[2]; [14],2 × 10^2 cells/g of sample
same,viable cell number,[2]; [15],8 × 10^2 cells/g of sample
same,viable cell number,[2]; [16],5 × 10^2 cells/g of sample
same,viable cell number,[2]; [17],2 × 10^2 cells/g of sample
same,viable cell number,[2]; [18],3 × 10^3 cells/g of sample
same,viable cell number,[2]; [19],5 × 10^4 cells/g of sample
same,viable cell number,[3]; [15],1 × 10^2 cells/g of sample
same,viable cell number,[3]; [16],7 × 10^2 cells/g of sample
same,viable cell number,[3]; [17],5 × 10^2 cells/g of sample
same,viable cell number,[3]; [18],4 × 10^3 cells/g of sample
same,viable cell number,[3]; [19],1 × 10^4 cells/g of sample
same,viable cell number,[4]; [14],6 × 10^2 cells/g of sample
same,viable cell number,[4]; [15],2 × 10^2 cells/g of sample
same,viable cell number,[4]; [16],2 × 10^2 cells/g of sample
same,viable cell number,[4]; [17],1 × 10^2 cells/g of sample
same,viable cell number,[4]; [18],8 × 10^3 cells/g of sample
same,viable cell number,[4]; [19],3 × 10^4 cells/g of sample
same,effect against spores,[5],ineffective
same,length of severed red worms,[6]; [20],21 mm
same,length of severed red worms,[6]; 10 days after severing,22 mm
same,length of severed red worms,[6]; 15 days after severing,23 mm
same,Deaths,[6]; in vivo,10
same,effect against acid-fast bacteria,[7],ineffective
same,Recovery: Thin skin overall,[8],5 days
same,Recovery: Complete recovery (coat grown back),[8]; listed as Hibitane gel,40 days and 38 days
same,Recovery: Skin with roughly original thickness,[8]; listed as Hibitane gel,12 days
same,survival of bacteria living inside plaque,[9],half survived
same,bactericidal effect in presence of organic substance,[10],the bacteria did not die after 1 minute of contact
same,Elongation of nails,[11]; 10 days,0.8 mm
same,Elongation of nails,[11]; 20 days,1.7 mm
same,Elongation of nails,[11]; 30 days,2.5 mm
same,Elongation of nails,[11]; 40 days,3.3 mm
same,Elongation of nails,[11]; 50 days,4.2 mm
same,Elongation of nails,[11]; 60 days,5.0 mm
same,bactericidal effect on putrefying bacteria in food,[12],no bactericidal effect in the real sense
same,survival of bacteria in plaque,[13],continued to survive
"OO [3% aqueous hydrogen peroxide, hydrogen peroxide]",viable cell number,[1]; [21],2 × 10^2 cells/g of sample
same,viable cell number,[1]; [22],4 × 10^2 cells/g of sample
same,viable cell number,[1]; [14],5 × 10^6 cells/g of sample
same,viable cell number,[1]; [15],5 × 10^2 cells/g of sample
same,viable cell number,[1]; [16],5 × 10^4 cells/g of sample
same,viable cell number,[1]; [17],1 × 10^5 cells/g of sample
same,viable cell number,[1]; [18],4 × 10^8 cells/g of sample
same,viable cell number,[1]; [19],6 × 10^6 cells/g of sample
same,viable cell number,[2]; [21],2 × 10^3 cells/g of sample
same,viable cell number,[2]; [22],3 × 10^4 cells/g of sample
same,viable cell number,[2]; [14],6 × 10^6 cells/g of sample
same,viable cell number,[2]; [15],5 × 10^4 cells/g of sample
same,viable cell number,[2]; [16],3 × 10^4 cells/g of sample
same,viable cell number,[2]; [17],5 × 10^4 cells/g of sample
same,viable cell number,[2]; [18],1 × 10^8 cells/g of sample
same,viable cell number,[2]; [19],7 × 10^5 cells/g of sample
same,viable cell number,[3]; [21],1 × 10^2 cells/g of sample
same,viable cell number,[3]; [22],1.8 × 10^2 cells/g of sample
same,viable cell number,[3]; [14],5 × 10^4 cells/g of sample
same,viable cell number,[3]; [15],2 × 10^2 cells/g of sample
same,viable cell number,[3]; [16],9 × 10^3 cells/g of sample
same,viable cell number,[3]; [17],2 × 10^4 cells/g of sample
same,viable cell number,[3]; [18],8 × 10^5 cells/g of sample
same,viable cell number,[3]; [19],4 × 10^4 cells/g of sample
same,viable cell number,[4]; [21],4 × 10^2 cells/g of sample
same,viable cell number,[4]; [22],5 × 10^2 cells/g of sample
same,viable cell number,[4]; [14],1 × 10^5 cells/g of sample
same,viable cell number,[4]; [15],1 × 10^3 cells/g of sample
same,viable cell number,[4]; [16],5 × 10^3 cells/g of sample
same,viable cell number,[4]; [17],5 × 10^3 cells/g of sample
same,viable cell number,[4]; [18],7 × 10^6 cells/g of sample
same,viable cell number,[4]; [19],4 × 10^4 cells/g of sample
same,effect against spores,[5],ineffective
same,length of severed red worms,[6]; [20],21 mm
same,length of severed red worms,[6]; 10 days after severing,22 mm
same,length of severed red worms,[6]; 15 days after severing,23 mm
same,length of severed red worms,[6]; 20 days after severing,24 mm
same,length of severed red worms,[6]; 30 days after severing,25 mm
same,length of severed red worms,[6]; 40 days after severing,27 mm
same,length of severed red worms,[6]; 50 days after severing,28 mm
same,Deaths,[6]; groups of 10 red worms,7
same,time required to kill acid-fast bacteria,[7],a minute or more
same,Recovery: Complete recovery (coat grown back),[8],40 days
same,Recovery: Skin with roughly original thickness,[8],15 days
same,Recovery: Thin skin overall,[8],5 days
same,survival of bacteria living inside plaque,[9],half survived
same,bactericidal effect in presence of organic substance,[10],A similar tendency was seen
same,Elongation of nails,[11]; 10 days,0.9 mm
same,Elongation of nails,[11]; 20 days,1.8 mm
same,Elongation of nails,[11]; 30 days,2.7 mm
same,Elongation of nails,[11]; 40 days,3.6 mm
same,Elongation of nails,[11]; 50 days,4.5 mm
same,Elongation of nails,[11]; 60 days,5.4 mm
same,difference in elongation between right and left hands,[11]; applied for 2 months,No significant differences in elongation
same,bactericidal effect on putrefying bacteria in food,[12],most of the bacteria survived immediately after spraying
